Holding throughout (type): in vivo, human
The test system of assay [1] is glioblastoma (WHO grade IV) at first recurrence. Briefly: L19-TNF plus lomustine in a patient with glioblastoma at first recurrence, contrast enhanced MRI. To be noted: one patient; 13 μg/kg L19-TNF iv on Days 1, 3, 5, 22, 24, 26 with 90 mg/m2 lomustine on Day 1; 40 days after baseline image. As for the experimental part: This example describes the effect of a combination therapy on a patient with recurrent glioblastoma after chemoradiotherapy followed by temozolomide maintenance therapy.
A patient with glioblastoma (WHO grade IV) at first recurrence, received 90 mg/m2 lomustine (CCNU) on Day 1. Additionally, this patient received 13 μg/kg L19-TNF, by iv infusion, on Days 1, 3, 5, 22, 24 and 26.
The patient had been pretreated for newly diagnosed glioblastoma with resection and chemoradiotherapy followed by temozolomide maintenance therapy.
Contrast enhanced MRI was performed initially, before receiving the lomustine and L19-TNF (baseline image; see FIG. 3A) and 40 days after baseline image (FIG. 3B).

The test system of assay [2] is recurrent glioblastoma. Put plainly: L19-TNFα treatment of patients with recurrent glioblastoma (tumor perfusion, necrosis, disease status). As for the experimental part: Three patients with recurrent glioblastoma were treated with L19-TNFα at a dose level of 10 μg/kg. […] This is surprising considering that the Progression Free Survival (PFS) for recurrent glioblastoma is 1.5 months.

Assay [3] has as its system recurrent glioblastoma. Put plainly: Immunohistochemistry of tumor tissue before and after treatment with L19-TNFα. To be noted: re-section tissue after treatment vs tissue from first surgery, patient with progressive disease.
[4] abbreviates: three patients, 10 μg/kg, twenty-four hours after the infusion.

“Also recorded” adds a separate entry of the source.

Consider L19-TNFα, for which the “tumour size on contrast enhanced MRI” value in assay [1] is listed as “substantially reduced”. Besides, the “disease status, one patient” value in the assay on recurrent glioblastoma [2] (10 μg/kg, one of three patients, after three months) is given as “progressive disease”. In addition, the “disease status, two patients” value with recurrent glioblastoma [2] (10 μg/kg, two of three patients, at six months after treatment, with increasing area of necrosis in the tumor region) was “stable disease”. Further, in the assay on recurrent glioblastoma [2] (setting [4]), the overall tumor perfusion result was “decrease” and the tumor necrosis entry is reported as “emerging tumor necrosis”. In the assay with recurrent glioblastoma [2] (two patients, FIG. 1A, after two and six cycles), the “glioma lesions (size)” value is given as “gradually shrink”. In the assay on recurrent glioblastoma [2] (two patients, FIG. 1A, before vs after treatment), the “necrotic core of the lesions” value is “expanding necrotic core”. Further, in the assay with recurrent glioblastoma [3], the “cleaved caspase-3 levels in tumor” value is recorded as “increase; also recorded: increased levels”, the “tumor-infiltrating CD4 T-cells” value is listed as “significant increase” and the “tumor-infiltrating CD8 T-cells” value is listed as “significant increase”.

The values are drawn from US12377161B2, “TNF-alpha immunoconjugate therapy for the treatment of brain tumors” (priority 2020, dated 2025).
